For 21 compounds, IC50 results are on record in patent US9931327B2, “Derivatives of 1-phenyl-2-pyridinyl alkyl alcohols as phosphodiesterase inhibitors” (Chiesi Farmaceutici S.p.A., priority 2011, dated 2018).

This experiment has as its system LPS-induced TNF-α release in peripheral blood mononuclear cells (PBMCs). Put plainly: In vitro determination of PDE4 inhibitory activity in the PBMCs assay (LPS-induced TNF-α release). Format: cell-based, human. The settings on record: PBMC, human PBMCs, LPS 3 ng/ml, 18 hours, read-out: PDE4 inhibition (IC50, 50% inhibition of LPS-induced TNF-α release). The method, boiled down:
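Cryopreserved human PBMCs (10^5 cells/well) pre-incubated 30 min with compound (10^−12 to 10^−6 M or 10^−3 to 10^−7 M), then stimulated with LPS 3 ng/ml for 18 h at 37 °C. TNF-α in medium by ELISA; IC50 as mean ± 95% confidence limits.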

Like-named read-outs stand apart in the source and are kept apart here.

Turning to `COc1ccc(S(=O)(=O)N2CCSC2C(=O)O[C@@H](Cc2c(Cl)c[n+]([O-])cc2Cl)c2ccc(OC(F)F)c(OCC3CC3)c2)cc1C(=O)N(C)C` (stereo partly drawn) [Compound 123, 3,5-dichloro-4-((2S)-2-(3-(cyclopropylmethoxy)-4-(difluoromethoxy)phenyl)-2-(3-(3-(dimethylcarbamoyl)-4-methoxyphenylsulfonyl)thiazolidine-2-carbonyloxy)ethyl)pyridine 1-oxide], the IC50 (TNF-α by ELISA) was less than 0.1 nM.

In the case of `CN(C)C(=O)c1cccc(S(=O)(=O)N2CCSCC2C(=O)O[C@@H](Cc2c(Cl)c[n+]([O-])cc2Cl)c2ccc(OC(F)F)c(OCC3CC3)c2)c1` (stereo partly drawn) [Compound 80, 3,5-dichloro-4-((2S)-2-(3-(cyclopropylmethoxy)-4-(difluoromethoxy)phenyl)-2-(4-(3-(dimethylcarbamoyl)phenylsulfonyl)thiomorpholine-3-carbonyloxy)ethyl)pyridine 1-oxide], the IC50 (TNF-α by ELISA) was 0.1 to 1 nM.

On to `CN(C)C(=O)c1cccc(C(=O)N2CCC[C@@H]2C(=O)O[C@@H](Cc2c(Cl)c[n+]([O-])cc2Cl)c2ccc(OC(F)F)c(OCC3CC3)c2)c1` [Compound 185, 3,5-dichloro-4-((S)-2-(3-(cyclopropylmethoxy)-4-(difluoromethoxy)phenyl)-2-((R)-1-(3-(dimethylcarbamoyl)benzoyl)pyrrolidine-2-carbonyloxy)ethyl)pyridine 1-oxide], for which, where the note is “TNF-α by ELISA”, the IC50 lay in the range of 0.1 to 1 nM.

Consider `CN(C)S(=O)(=O)c1cccc(S(=O)(=O)N2CCCC[C@H]2C(=O)O[C@@H](Cc2c(Cl)c[n+]([O-])cc2Cl)c2ccc(OC(F)F)c(OCC3CC3)c2)c1` [Compound 113, 3,5-dichloro-4-((S)-2-(3-(cyclopropylmethoxy)-4-(difluoromethoxy)phenyl)-2-((S)-1-(3-(N,N-dimethylsulfamoyl)phenylsulfonyl)piperidine-2-carbonyloxy)ethyl)pyridine 1-oxide], for which the IC50 (TNF-α by ELISA) was less than 0.1 nM.

For the compound `COC(=O)c1ccc(S(=O)(=O)N2CCS[C@H]2C(=O)O[C@@H](Cc2c(Cl)c[n+]([O-])cc2Cl)c2ccc(OC(F)F)c(OCC3CC3)c2)cc1` [Compound 100, 3,5-dichloro-4-((S)-2-(3-(cyclopropylmethoxy)-4-(difluoromethoxy)phenyl)-2-((S)-3-(4-(methoxycarbonyl)phenylsulfonyl)thiazolidine-2-carbonyloxy)ethyl)pyridine 1-oxide], under “TNF-α by ELISA”, the IC50 is 1 to 10 nM.

In the case of `O=C(O[C@@H](Cc1c(Cl)c[n+]([O-])cc1Cl)c1ccc(OC(F)F)c(OCC2CC2)c1)[C@@H]1CSCN1` [Compound 11], for the setting “compounds of formula (II)”, the IC50 fell in the range of 0.1 to 1 nM.

For `CN1CCN(C(=O)c2cccc(S(=O)(=O)N3CCSC3C(=O)O[C@@H](Cc3c(Cl)c[n+]([O-])cc3Cl)c3ccc(OC(F)F)c(OCC4CC4)c3)c2)CC1` (stereo partly drawn) [Compound 130, 3,5-dichloro-4-((2S)-2-(3-(cyclopropylmethoxy)-4-(difluoromethoxy)phenyl)-2-(3-(3-(4-methylpiperazine-1-carbonyl)phenylsulfonyl)thiazolidine-2-carbonyloxy)ethyl)pyridine 1-oxide], the IC50 (TNF-α by ELISA) is less than 0.1 nM.

On to `O=C(OCCN1CCOCC1)c1cccc(S(=O)(=O)N2CCSC2C(=O)O[C@@H](Cc2c(Cl)c[n+]([O-])cc2Cl)c2ccc(OC(F)F)c(OCC3CC3)c2)c1` (single isomer, unassigned) [Compound 133, 3,5-dichloro-4-((S)-2-(3-(cyclopropylmethoxy)-4-(difluoromethoxy)phenyl)-2-((S)-3-(3-((2-morpholinoethoxy)carbonyl)phenylsulfonyl)thiazolidine-2-carbonyloxy)ethyl)pyridine 1-oxide or 3,5-dichloro-4-((S)-2-(3-(cyclopropylmethoxy)-4-(difluoromethoxy)phenyl)-2-((R)-3-(3-((2-morpholinoethoxy)carbonyl)phenylsulfonyl)thiazolidine-2-carbonyloxy)ethyl)pyridine 1-oxide], for which the IC50 (TNF-α by ELISA) was less than 0.1 nM.

In the case of `CN(C)C(=O)c1cccc(S(=O)(=O)N2CCC[C@@H](C(=O)O[C@@H](Cc3c(Cl)c[n+]([O-])cc3Cl)c3ccc(OC(F)F)c(OCC4CC4)c3)C2)c1` [Compound 228], the IC50 (TNF-α by ELISA) was in the range of 0.1 to 1 nM.

With `O=C(O[C@@H](Cc1c(Cl)c[n+]([O-])cc1Cl)c1ccc(OC(F)F)c(OCC2CC2)c1)[C@@H]1SCCN1C(=O)c1cccc(-c2cnco2)c1` [Compound 41, 3,5-dichloro-4-((S)-2-(3-(cyclopropylmethoxy)-4-(difluoromethoxy)phenyl)-2-((S)-3-(3-(oxazol-5-yl)benzoyl)thiazolidine-2-carbonyloxy)ethyl)pyridine 1-oxide], under “TNF-α by ELISA”, the IC50 fell in the range of 0.1 to 1 nM.

For the compound `O=C(O[C@@H](Cc1c(Cl)c[n+]([O-])cc1Cl)c1ccc(OC(F)F)c(OCC2CC2)c1)[C@@H]1SCCN1S(=O)(=O)CCN1CCOCC1` [Compound 287, 3,5-dichloro-4-((S)-2-(3-(cyclopropylmethoxy)-4-(difluoromethoxy)phenyl)-2-((S)-3-(2-morpholinoethylsulfonyl)thiazolidine-2-carbonyloxy)ethyl)pyridine 1-oxide], the IC50 (TNF-α by ELISA) was less than 0.1 nM.

Turning to `CN1CCOc2ccc(S(=O)(=O)N3CCS[C@H]3C(=O)O[C@@H](Cc3c(Cl)c[n+]([O-])cc3Cl)c3ccc(OC(F)F)c(OCC4CC4)c3)cc21` [Compound 108, 3,5-dichloro-4-((S)-2-(3-(cyclopropylmethoxy)-4-(difluoromethoxy)phenyl)-2-((S)-3-(4-methyl-3,4-dihydro-2H-benzo[b][1,4]oxazin-6-ylsulfonyl)thiazolidine-2-carbonyloxy)ethyl)pyridine 1-oxide], the IC50 (TNF-α by ELISA) was 0.1 to 1 nM.

Consider `O=C(O[C@@H](Cc1c(Cl)c[n+]([O-])cc1Cl)c1ccc(OC(F)F)c(OCC2CC2)c1)C1SCCN1S(=O)(=O)c1ccsc1` (stereo partly drawn) [Compound 85, 3,5-dichloro-4-((2S)-2-(3-(cyclopropylmethoxy)-4-(difluoromethoxy)phenyl)-2-(3-(thiophen-3-ylsulfonyl)thiazolidine-2-carbonyloxy)ethyl)pyridine 1-oxide], for which, where the note is “TNF-α by ELISA”, the IC50 was less than 0.1 nM.

In the case of `COc1cc([C@H](Cc2c(Cl)c[n+]([O-])cc2Cl)OC(=O)[C@@H]2SCCN2S(=O)(=O)c2cccc(C(=O)N(C)C)c2)ccc1OC(F)F` [Compound 299, 3,5-dichloro-4-((S)-2-(4-(difluoromethoxy)-3-methoxyphenyl)-2-((S)-3-(3-(dimethylcarbamoyl)phenylsulfonyl)thiazolidine-2-carbonyloxy)ethyl)pyridine 1-oxide], the IC50 (TNF-α by ELISA) was less than 0.1 nM.

On to `Cc1noc2ncc(S(=O)(=O)N3CCSC3C(=O)O[C@@H](Cc3c(Cl)c[n+]([O-])cc3Cl)c3ccc(OC(F)F)c(OCC4CC4)c3)cc12` (stereo in doubt) [Compound 239, 3,5-dichloro-4-((S)-2-(3-(cyclopropylmethoxy)-4-(difluoromethoxy)phenyl)-2-((S)-3-(3-methylisoxazolo[5,4-b]pyridin-5-ylsulfonyl)thiazolidine-2-carbonyloxy)ethyl)pyridine 1-oxide], for which the IC50 (TNF-α by ELISA) was less than 0.1 nM.

Consider `CN1C(=O)Cc2cc(S(=O)(=O)N3CCS[C@H]3C(=O)O[C@@H](Cc3c(Cl)c[n+]([O-])cc3Cl)c3ccc(OC(F)F)c(OCC4CC4)c3)ccc21` [Compound 210, 3,5-dichloro-4-((S)-2-(3-(cyclopropylmethoxy)-4-(difluoromethoxy)phenyl)-2-((S)-3-(1-methyl-2-oxoindolin-5-ylsulfonyl)thiazolidine-2-carbonyloxy)ethyl)pyridine 1-oxide], for which the IC50 (TNF-α by ELISA) was less than 0.1 nM.

Regarding `Nc1ccc(S(=O)(=O)N2CCC[C@H]2C(=O)O[C@@H](Cc2c(Cl)c[n+]([O-])cc2Cl)c2ccc(OC(F)F)c(OCC3CC3)c2)cc1` [Compound 136, 4-((S)-2-((S)-1-(4-aminophenylsulfonyl)pyrrolidine-2-carbonyloxy)-2-(3-(cyclopropylmethoxy)-4-(difluoromethoxy)phenyl)ethyl)-3,5-dichloropyridine 1-oxide], where the note is “TNF-α by ELISA”, the IC50 fell in the range of 0.1 to 1 nM.

Turning to `Cn1ccnc1S(=O)(=O)N1CCC[C@H]1C(=O)O[C@@H](Cc1c(Cl)c[n+]([O-])cc1Cl)c1ccc(OC(F)F)c(OCC2CC2)c1` [Compound 155, 3,5-dichloro-4-((S)-2-(3-(cyclopropylmethoxy)-4-(difluoromethoxy)phenyl)-2-((S)-1-(1-methyl-1H-imidazol-2-ylsulfonyl)pyrrolidine-2-carbonyloxy)ethyl)pyridine 1-oxide], the IC50 (TNF-α by ELISA) was less than 0.1 nM.

`O=C(O[C@@H](Cc1c(Cl)c[n+]([O-])cc1Cl)c1ccc(OC(F)F)c(OCC2CC2)c1)C1SCCN1S(=O)(=O)c1cccc(Cl)c1` (stereo partly drawn) [Compound 63, 3,5-dichloro-4-((2S)-2-(3-(3-chlorophenylsulfonyl)thiazolidine-2-carbonyloxy)-2-(3-(cyclopropylmethoxy)-4-(difluoromethoxy)phenyl)ethyl)pyridine 1-oxide]: for the setting “TNF-α by ELISA”, the IC50 was in the range of 0.1 to 1 nM.

On to `O=C(O[C@@H](Cc1c(Cl)c[n+]([O-])cc1Cl)c1ccc(OC(F)F)c(OCC2CC2)c1)C1SCCN1S(=O)(=O)C1CCCCC1` (stereo partly drawn) [Compound 71, 3,5-dichloro-4-((2S)-2-(3-(cyclohexylsulfonyl)thiazolidine-2-carbonyloxy)-2-(3-(cyclopropylmethoxy)-4-(difluoromethoxy)phenyl)ethyl)pyridine 1-oxide], for which the IC50 (TNF-α by ELISA) lay in the range of 1 to 10 nM.

Consider `NCc1cccc(C(=O)N2CCS[C@H]2C(=O)O[C@@H](Cc2c(Cl)c[n+]([O-])cc2Cl)c2ccc(OC(F)F)c(OCC3CC3)c2)c1` [Compound 21, 4-((S)-2-((S)-3-(3-(aminomethyl)benzoyl)thiazolidine-2-carbonyloxy)-2-(3-(cyclopropylmethoxy)-4-(difluoromethoxy)phenyl)ethyl)-3,5-dichloropyridine 1-oxide], for which, where the note is “TNF-α by ELISA”, the IC50 was 1 to 10 nM.
